Source: PubChem BioAssay (NCI)
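Five compound concentrations were applied to cells in 96-well plates for 48 hours; endpoints were derived by simple linear interpolation of the resulting dose-response curve. TGI marks complete inhibition of growth.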 Where a SMILES comes first, the peptide text is derived from it. [ ]: non-standard residue; d: D form. The star is where a group is joined. ξ: configuration not given here. ξPhe(4-NO2) = NC(Cc1ccc([N+](=O)[O-])cc1)C(=O)O; Boc = CC(C)(C)OC(=O)*; OBn = c1ccc(CO*)cc1

Columns and labels:
Assay in all cases: NCI tumour cell line growth inhibition, 48 h
[1] = tested on: CAKI-1 renal
[2] = tested on: DU-145 prostate
[3] = tested on: HCT-116 colon
[4] = tested on: MALME-3M melanoma
[5] = tested on: MCF7 breast
[6] = tested on: MDA-MB-435
[7] = tested on: MDA-N
[8] = tested on: PC-3 prostate
[9] = tested on: SF-295 CNS
[10] = tested on: SF-539 CNS
[11] = tested on: SK-MEL-2 melanoma
[12] = tested on: SK-MEL-28 melanoma
[13] = tested on: SN12C renal
[14] = tested on: SNB-19 CNS
[15] = tested on: HOP-92 NSCLC

Structure (SMILES) | TGI [1] | TGI [2] | TGI [3] | TGI [4] | TGI [5] | TGI [6] | TGI [7] | TGI [8] | TGI [9] | TGI [10] | TGI [11] | TGI [12] | TGI [13] | TGI [14] | TGI [15]
CC(=O)NCC1(c2ccccc2)CCN(CC2COc3ccccc3O2)CC1 (stereo not given) | > 100 µM | > 100 µM | > 100 µM | > 100 µM | > 100 µM | > 100 µM | > 100 µM | > 100 µM | > 100 µM | > 100 µM | > 100 µM | > 100 µM | > 100 µM | > 100 µM | –
CCCCCC(=O)OCC(=O)[C@H]1[C@H](C)C[C@H]2[C@@H]3C[C@H](F)C4=C/C(=N/OC(=O)c5cccc6c(=O)c7ccccc7[nH]c56)C=C[C@]4(C)[C@H]3[C@@H](O)C[C@@]21C | > 100 µM | > 100 µM | 85.3 µM | 33.2 µM | 54.9 µM | 55.3 µM | 76.8 µM | 53.8 µM | > 100 µM | > 100 µM | 76.8 µM | – | > 100 µM | > 100 µM | > 100 µM
c1ccc2[nH]c3[nH]c4[nH]c5ccccc5[nH]c4[nH]c3[nH]c2c1 | > 100 µM | > 100 µM | > 100 µM | > 100 µM | > 100 µM | > 100 µM | > 100 µM | > 100 µM | > 100 µM | > 100 µM | > 100 µM | > 100 µM | > 100 µM | > 100 µM | –
Cc1[nH]n(-c2nc3c(c(=O)[nH]2)CCC3)c(=O)c1CCO | > 100 µM | > 100 µM | > 100 µM | > 100 µM | > 100 µM | > 100 µM | > 100 µM | > 100 µM | > 100 µM | > 100 µM | > 100 µM | > 100 µM | > 100 µM | > 100 µM | –
CN1CC2=C(NC(=S)NC2c2ccc(Cl)cc2)/C(=C/c2ccc(Cl)cc2)C1 (stereo not given) | 32.4 µM | 30.5 µM | 29.2 µM | 36.8 µM | 68.4 µM | 30.1 µM | 34.9 µM | 23.1 µM | 33.8 µM | 62.9 µM | 30.2 µM | 33.9 µM | 36.4 µM | – | –
C=C(C)[C@@H]1CC[C@@H](C)[C@](O)([C@@H]2C[C@@H]([C@H](COC(=O)c3ccccc3)OC(=O)c3ccccc3)OC2=O)C1 | > 100 µM | > 100 µM | > 100 µM | > 100 µM | > 100 µM | > 100 µM | > 100 µM | > 100 µM | > 100 µM | > 100 µM | > 100 µM | > 100 µM | > 100 µM | > 100 µM | –
CC(C)(C)OC(=O)NC(Cc1ccc([N+](=O)[O-])cc1)C(=O)NCC(=O)OCc1ccccc1 (stereo not given) (Boc-[ξPhe(4-NO2)]-Gly-OBn) | 27.7 µM | 81.8 µM | 68.2 µM | 61.9 µM | > 100 µM | 33.2 µM | 39.8 µM | 49.6 µM | 40.2 µM | – | – | 47.3 µM | 45.9 µM | > 100 µM | 65.9 µM
CCCCSC1=N/C(=C\c2ccco2)C(=O)N1 | > 100 µM | > 100 µM | > 100 µM | > 100 µM | > 100 µM | > 100 µM | > 100 µM | > 100 µM | > 100 µM | – | > 100 µM | > 100 µM | > 100 µM | > 100 µM | –
C[C@@H]1C[C@@H](O)[C@@]2(O)C13CC(=O)OC(C3)[C@@H](C)[C@@]2(C)CO (stereo not given in full) | – | > 100 µM | > 100 µM | > 100 µM | > 100 µM | > 100 µM | > 100 µM | > 100 µM | > 100 µM | > 100 µM | > 100 µM | > 100 µM | > 100 µM | > 100 µM | > 100 µM
C=CCNC(=O)/C(Cc1cc(Br)c(OC)c(Br)c1O)=N\O | 33.7 µM | 25.1 µM | 12.7 µM | 17.3 µM | > 100 µM | 2.69 µM | 1.07 µM | > 100 µM | 21.5 µM | 14.6 µM | 44.5 µM | 31 µM | – | 58.9 µM | 24.1 µM
CN(C)c1ccc(/C=C2\N=C(N/N=C/c3ccccc3)NC2=O)cc1 | > 100 µM | > 100 µM | > 100 µM | > 100 µM | > 100 µM | > 100 µM | > 100 µM | > 100 µM | > 100 µM | – | > 100 µM | > 100 µM | > 100 µM | > 100 µM | 79.1 µM
CC(=O)O[C@H]1C(=O)[C@@]2(C)[C@H]([C@H](OC(=O)c3ccc([N+](=O)[O-])cc3)[C@]3(O)C[C@H](OC(=O)[C@H](O)[C@@H](NC(=O)c4ccccc4)c4ccccc4)C(C)=C1C3(C)C)[C@]1(OC(C)=O)CO[C@@H]1C[C@@H]2O | > 25 µM | > 25 µM | > 25 µM | > 25 µM | > 25 µM | > 25 µM | > 25 µM | > 25 µM | > 25 µM | > 25 µM | – | > 25 µM | > 25 µM | > 25 µM | > 25 µM
COc1cccc(-c2cccc(SC)n2)n1 | > 100 µM | > 100 µM | > 100 µM | – | > 100 µM | 86.8 µM | > 100 µM | > 100 µM | > 100 µM | > 100 µM | > 100 µM | > 100 µM | > 100 µM | > 100 µM | 67.4 µM
CCOc1ccc(N/C(=C(/C(Cl)=C(/Cl)NCCO)[N+](=O)[O-])n2nnc3ccccc32)cc1 | 27.8 µM | 36 µM | > 100 µM | 32.4 µM | 38.8 µM | 35.1 µM | > 100 µM | 86.4 µM | > 100 µM | 93 µM | > 100 µM | 37.7 µM | 49.1 µM | > 100 µM | –
C[C@]12CC(c3ccccc3O1)C(C#N)C(=O)N2 (stereo not given in full) | > 100 µM | > 100 µM | > 100 µM | > 100 µM | > 100 µM | > 100 µM | > 100 µM | > 100 µM | – | – | > 100 µM | > 100 µM | > 100 µM | > 100 µM | > 100 µM
COC1C=C(NCC2(CO)CCC2)NC(N)=N1 (stereo not given) | > 100 µM | > 100 µM | > 100 µM | > 100 µM | > 100 µM | > 100 µM | > 100 µM | > 100 µM | > 100 µM | – | > 100 µM | > 100 µM | > 100 µM | > 100 µM | > 100 µM
